# Reference: patent publication EP4703361A1, “PYRIDAZINONE TRPC4/5 INHIBITOR AND USE THEREOF” (Shanghai Institute of Materia Medica, Chinese Academy of …, priority 2023, dated 2024)
# Experiments:
# hTRPC5 = molecular target: T1, hTRPC5 (Homo sapiens, UniProt Q9UL62); experiment: TRPC5 inhibitory activity assay (FLIPR calcium flux, Fluo-4, agonist Englerin A); assay type: cell-based; conditions: HEK-293 cells expressing hTRPC5; agonist Englerin A 0.3 nM
# T1 construct: expressed in transfected cells; host or cells: HEK-293
# T1 sequence (Q9UL62 1-973): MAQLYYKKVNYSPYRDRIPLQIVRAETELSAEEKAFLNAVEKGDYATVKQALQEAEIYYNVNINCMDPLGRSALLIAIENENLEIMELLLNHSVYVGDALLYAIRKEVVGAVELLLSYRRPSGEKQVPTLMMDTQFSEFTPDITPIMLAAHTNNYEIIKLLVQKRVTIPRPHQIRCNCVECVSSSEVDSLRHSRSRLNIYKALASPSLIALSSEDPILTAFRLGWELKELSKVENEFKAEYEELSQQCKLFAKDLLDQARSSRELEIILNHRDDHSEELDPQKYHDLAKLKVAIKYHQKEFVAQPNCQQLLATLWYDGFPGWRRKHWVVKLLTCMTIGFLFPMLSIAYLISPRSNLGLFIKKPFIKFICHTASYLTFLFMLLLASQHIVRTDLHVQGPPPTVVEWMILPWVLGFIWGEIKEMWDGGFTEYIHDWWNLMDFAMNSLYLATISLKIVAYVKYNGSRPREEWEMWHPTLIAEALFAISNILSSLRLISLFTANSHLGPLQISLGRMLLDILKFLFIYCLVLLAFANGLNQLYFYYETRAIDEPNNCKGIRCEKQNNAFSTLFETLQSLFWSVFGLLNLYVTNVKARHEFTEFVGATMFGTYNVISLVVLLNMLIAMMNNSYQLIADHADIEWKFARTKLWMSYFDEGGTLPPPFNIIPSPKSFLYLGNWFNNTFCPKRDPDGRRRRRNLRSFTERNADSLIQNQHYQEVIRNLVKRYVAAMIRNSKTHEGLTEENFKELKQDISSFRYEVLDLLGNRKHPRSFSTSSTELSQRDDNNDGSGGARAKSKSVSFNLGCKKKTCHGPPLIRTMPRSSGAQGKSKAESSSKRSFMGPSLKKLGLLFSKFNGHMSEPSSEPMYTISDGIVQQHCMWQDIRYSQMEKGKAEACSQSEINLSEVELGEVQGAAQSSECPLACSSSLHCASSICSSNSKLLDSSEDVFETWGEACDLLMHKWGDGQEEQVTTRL
# Protocol: HEK-293 cells expressing hTRPC4 or hTRPC5 were seeded into polylysine (PDL)-coated, black-bottomed, transparent 96-well plates at 2 × 10^4 cells per well. After 8 h of culture, the culture medium was discarded and 60 µL of 4 µM Fluo-4/AM dye was added. The plates were incubated at 37°C for 60 min and then rinsed five times with calcium flux assay buffer. […] After recording for 60 seconds, solvent control, test compound and positive inhibitor were added, and the signal was collected for another 300 seconds. Then, the agonist Englerin A (EA) (MedChemExpress, Shanghai, China, final concentration of 0.3 nM) was added, and the fluorescence signal was collected for another 600 seconds. The fluorescence signal in the trajectory diagram was expressed as F/F0, wherein F was the fluorescence signal at different time points and F0 was the basic fluorescence signal, that is, the average of the fluorescence signals at the first 10 time points. The dose-effect curve is first established with F/F0 = 1 as the baseline. The area under the curve of the fluorescence intensity change after the addition of EA was calculated. The IC50 value was calculated using the log[Inhibitor] vs. response - Variable slope, combining the area under the curve and the log value of the compound concentration.
# [1] = Drug tissue distribution after oral administration to mice; conditions: for Drug concentration Brain / Drug concentration Colon / Drug concentration Heart / Drug concentration Kidney / Drug concentration Liver / Drug concentration Lung / Drug concentration Muscle / Drug concentration Plasma / Drug concentration Spleen: mice, 10 mg/kg oral
# Protocol: 250 mg of CMC-Na was weighted accurately, dissolved in 50 mL of mili-Q water, and sonicated for 1 h to prepare a 0.5% (m/v) CMC-Na solution for later use. […] After vortexing to dissolve, 140 µL of Tween 80 was added and mixed by vortex. Then 6.72 mL of CMC-Na solution was added and sonicated for 30 min to obtain 7 mL of a 1.0 mg/mL solution for use.
# Mice were able to eat and drink freely and randomly divided into groups, with 3 mice in each group, and each mouse was gavaged with a dosage volume of 10 mL/kg. Blood was collected from the orbital venous plexus 1 and 4 hours after administration. Approximately 500 µL of mouse blood was placed in an EDTA-K2 anticoagulant tube. At the same time points, the brain, heart, lung, liver, kidney, spleen, colon, and muscle tissues of the mice were collected. […] Mouse brain, heart, lung, liver, kidney, spleen, colon, and muscle tissues were ground into tissue homogenate using a grinder with physiological saline equal to 5 times the weight of the tissue. The homogenate was centrifuged at 3,000 rpm for 10 min, and the supernatant was stored at -80°C for later use.
# 198 µL of plasma sample was placed in a centrifuge tube, 2 µl of internal standard solution was added, then 400 µL of acetonitrile was added, mixed by vortex for 1 min, and centrifuged at 13,000 rpm for 6 min. All the supernatant was taken, evaporated at room temperature for two days, re-dissolved in 200 µL of acetonitrile solvent, filtered with a 0.22 µm filter membrane and then injected for testing. 198 µL of the tissue homogenate supernatant sample was placed in a centrifuge tube, 2 µl of internal standard solution was added, then 400 µL of acetonitrile was added, mixed by vortex for 1 min, and centrifuged at 13,000 rpm for 6 min. All the supernatant was taken, evaporated at room temperature for two days, re-dissolved in 200 µL of acetonitrile solvent, filtered with a 0.22 µm filter membrane and then injected for testing.
# Chromatographic column: Ultimate XB-C18 3 µM 2.1*100 mm; flow rate: 0.3 mL/min; column temperature: 30 °C; injection volume: 5 µL; mobile phase: A (pure water, containing 0.1% by volume formic acid), B (acetonitrile). The mass spectrometry ion source was an electrospray ionization (ESI) ionization source with a source temperature of 300°C.
# in vitro [2] = conditions: human, microsomes, pH 7.4
# Protocol: (§1) 0.1M pH 7.4 Tris buffer was prepared and then this buffer was used to prepare a 100 mM MgCl2 solution and a 10 mM coenzyme factor NADPH solution. The test compound was first prepared as a stock solution in DMSO and then diluted to a working concentration with 0.1% (w/v) BSA-PBS solution as needed.
# (§2) During the assay, the liver microsome in TRIS buffer (final concentration of 0.33 mg/mL microsome protein), MgCl2 solution (final concentration of 5 mM), test compound solution (final concentration of 1 µM), and NADPH solution (final concentration of 1 mM) were incubated at 37°C. The reaction was terminated by adding methanol at 0, 7, 17, 30, and 60 minutes. The residual concentration of the test compound was determined using LC/MS/MS.
# (§3) Calculation of in vivo clearance: Cl = (Clint × Houston × LW)/(1000); [formula]
# (§4) Calculation of hepatic clearance: Clhep = (HBF × fu × Cl)/(HBF + (fu×Cl)); [formula]
# (§5) Calculation of Metabolic utilization rate: %MF = 100−(Clhep × 100)/(HBF). [formula]
# (§6) ke: Slope of the linear regression line (absolute value of slope) when plotting semi-logarithmic graph. The semi-logarithmic plot was made with the semi-logarithm of the remaining percentage of substrate versus reaction time. P: Microsome protein concentration (mg/mL); Houston: Houston factor (45 mg microsome protein/g liver); LW: Liver weight (g); HBF: Hepatic blood flow (mL/min); fu: Unbound fraction (typically fu=1).
# in vitro [3] = conditions: mouse, microsomes, pH 7.4
# Protocol: as §1, §2, §3, §4, §5, §6
# [4] = Liver microsome stability test (mouse); conditions: for MF %: mouse liver microsomes, metabolic bioavailability; for half-life at 1 µM: mouse, liver microsomes, pH 7.4
# Protocol: as §1, §2, §3, §4, §5, §6
# [5] = Liver microsome stability test (human); conditions: for MF %: human liver microsomes, metabolic bioavailability; for half-life at 1 µM: human, liver microsomes, pH 7.4
# Protocol: as §1, §2, §3, §4, §5, §6
# [6] = system: DOCA-salt hypertensive nephropathy rats; experiment: DOCA-salt-induced hypertensive nephropathy rat model; assay type: in vivo, SD rats; conditions: oral treatment for 3 weeks, losartan 30 mg/kg once a day
# Text: After one week of adaptive feeding, 40 healthy male SD rats (SPF grade, 6 weeks old, weighing 200 g) were randomly divided into cages and fed with normal water. Five rats were selected as the normal group. The other 35 rats were weighed and anesthetized with 6% (w/v) chloral hydrate (200 g/ml, Sinopharm Group Reagent Company) intraperitoneally. The dorsal surgical area was then trimmed and the rats were fixed in a prone position on a surgical board. After strict disinfection, a 2-cm incision was made on the left side of the spine, below the twelfth rib. The muscles were separated, the renal capsule was freed, and the left kidney was exposed. The renal artery and vein were ligated close to the renal hilum, and the left kidney was removed. After clearing congestion, the muscle layer and skin were sutured. After surgery (after waking up from anesthesia), the rats were given an intraperitoneal injection of penicillin sodium (80,000 units intraperitoneal injection, for 3 consecutive days, prepared with normal saline. If 400,000 units of powder were used with 2.5 mL of normal saline, and 0.5 mL was injected per mouse per day). Afterwards, the normal group was given a subcutaneous injection of vegetable oil (commonly corn oil) and fed with tap water; the DOCA-salt modeling group was given a subcutaneous injection of deoxycorticosterone acetate (DOCA, CAS: 56-47-3, Shanghai Aladdin Biochemical Technology) dissolved in vegetable oil once a week, 30 mg/kg each time, and 10 g/L NaCl and 2 g/L KCl were added to the drinking water. The model was established after 4 consecutive weeks of induction.
# Four weeks after modeling, the DOCA-salt hypertensive nephropathy rats were divided into four groups according to UACR. The drug was dissolved in 2% (v/v) DMSO + 2% (w/v) Tween 80 + physiological saline system and administered by gavage. […] Normal group: 5 rats, raised normally. Each group had free access to food and water.
# After the start of drug administration, rats were placed in metabolic cages to collect 24 hours urine per week. […] Three weeks after administration, serum was collected to check the concentrations of blood creatinine and urea nitrogen. Then, the rats were euthanized under anesthesia, and the renal tissues were obtained. The RNA levels of nephrin and podocin were detected by quantitative RT-PCR.
# GraphPad Prism (Ver 6.0) was used for statistical analysis. All data were expressed as mean ± standard error (mean ± SEM). One-way ANOVA was used to analyze the data. Dunnett's multiple test was used to analyze the significance of the differences between the groups. When P < 0.05, the differences between the groups were statistically significant.
# [7] = E21 high dose (10 mg/kg morning and evening), Figure 4
# [8] = E21 medium dose (5 mg/kg morning and evening), Figure 3
compound,measurement,setting,value
"[N-]=[N+]=NC(c1cc(F)ccc1Cl)c1cnc2n1CCN(c1cn[nH]c(=O)c1Cl)C2 (stereo not shown) [Example E30, 5-(3-(azido(2-chloro-5-fluorophenyl)methyl)-5,6-dihydroimidazo[1,2-a]pyrazin-7(8H)-yl)-4-chloropyridazin-3(2H)-one]",IC50,hTRPC5,37.1 nM
"COC(c1ccc(F)cc1Cl)c1cnc2n1CCN(c1cn[nH]c(=O)c1Cl)C2 (racemic) [Example E21, 4-chloro-5-(3-((2-chloro-4-fluorophenyl)(methoxy)methyl)-5,6-dihydroimidazo[1,2-a]pyrazin-7(8H)-yl)pyridazin-3(2H)-one]","drug exposure and distribution in plasma, liver, and kidney",[1]; 1 and 4 hours after oral administration to mice,good
same,Drug concentration Brain,[1]; 1 h,52 ng/g
same,Drug concentration Colon,[1]; 1 h,824 ng/g
same,Drug concentration Heart,[1]; 1 h,191 ng/g
same,Drug concentration Kidney,[1]; 1 h,719 ng/g
same,Drug concentration Liver,[1]; 1 h,565 ng/g
same,Drug concentration Lung,[1]; 1 h,219 ng/g
same,Drug concentration Muscle,[1]; 1 h,153 ng/g
same,Drug concentration Plasma,[1]; 1 h,1147 ng/mL
same,Drug concentration Spleen,[1]; 1 h,531 ng/g
same,Drug concentration Brain,[1]; 4 h,28 ng/g
same,Drug concentration Colon,[1]; 4 h,133 ng/g
same,Drug concentration Heart,[1]; 4 h,26 ng/g
same,Drug concentration Kidney,[1]; 4 h,97 ng/g
same,Drug concentration Liver,[1]; 4 h,205 ng/g
same,Drug concentration Lung,[1]; 4 h,39 ng/g
same,Drug concentration Muscle,[1]; 4 h,52 ng/g
same,Drug concentration Plasma,[1]; 4 h,250 ng/mL
same,Drug concentration Spleen,[1]; 4 h,60 ng/g
"O=C(c1ccc(F)cc1C(F)(F)F)c1nnc2n1CCN(c1cn[nH]c(=O)c1Cl)C2 [Example E41, 4-chloro-5-(3-(4-fluoro-2-(trifluoromethyl)benzoyl)-5,6-dihydro-[1,2,4]triazolo[4,3-a]pyrazin-7(8H)-yl)pyridazin-3(2H)-one]",IC50,hTRPC5,146 nM
"CC(c1ccc(F)cc1Cl)c1cnc2n1CCN(c1cn[nH]c(=O)c1Cl)C2 (stereo not shown) [Example E28, 4-chloro-5-(3-(1-(2-chloro-4-fluorophenyl)ethyl)-5,6-dihydroimidazo[1,2-a]pyrazin-7(8H)-yl)pyridazin-3(2H)-one]",IC50,hTRPC5,18.3 nM
"C=C(c1cc(F)ccc1Cl)c1cnc2n1CCN(c1cn[nH]c(=O)c1Cl)C2 [Example E27, 4-chloro-5-(3-(1-(2-chloro-5-fluorophenyl)vinyl)-5,6-dihydroimidazo[1,2-a]pyrazin-7(8H)-yl)pyridazin-3(2H)-one]",IC50,hTRPC5,5.28 nM
O=c1[nH]ncc(N2CCn3c(Cc4ccc(F)cc4C(F)(F)F)cnc3C2)c1Cl [Example L002],half-life at 1 µM,in vitro [2],1.1 h
same,IC50,hTRPC5,10.4 nM
same,half-life at 1 µM,in vitro [3],0.645 h
"CC(c1cc(F)ccc1Cl)c1cnc2n1CCN(c1cn[nH]c(=O)c1Cl)C2 (stereo not shown) [Example E29, 4-chloro-5-(3-(1-(2-chloro-5-fluorophenyl)ethyl)-5,6-dihydroimidazo[1,2-a]pyrazin-7(8H)-yl)pyridazin-3(2H)-one]",MF %,[4],54.4%
same,half-life at 1 µM,[4],0.94 h
same,MF %,[5],39.6%
same,half-life at 1 µM,[5],1.17 h
"[N-]=[N+]=NC(c1ccc(F)cc1C(F)(F)F)c1cnc2n1CCN(c1cn[nH]c(=O)c1Cl)C2 (stereo not shown) [Example E9, 5-(3-(azido(4-fluoro-2-(trifluoromethyl)phenyl)methyl)-5,6-dihydroimidazo[1,2-a]pyrazin-7(8H)-yl)-4-chloropyridazin-3(2H)-one]",IC50,hTRPC5,24.6 nM
"COC(c1cc(F)ccc1Cl)c1cnc2n1CCN(c1cn[nH]c(=O)c1Cl)C2 (stereo not shown) [Example E22, 4-chloro-5-(3-((2-chloro-5-fluorophenyl)(methoxy)methyl)-5,6-dihydroimidazo[1,2-a]pyrazin-7(8H)-yl)pyridazin-3(2H)-one]",IC50,hTRPC5,60.1 nM
CCCCc1nc(Cl)c(CO)n1Cc1ccc(-c2ccccc2-c2nn[nH]n2)cc1 [losartan],"levels of nephrin (mRNA, kidney)",[6]; [7],effectively increase
same,"levels of podocin (mRNA, kidney)",[6]; [7],effectively increase
same,serum creatinine (Scr),[6]; [8],effectively reduce
same,urea nitrogen (BUN),[6]; [8],no effect
"[2H]C([2H])([2H])OC(c1ccc(F)cc1C)c1cnc2n1CCN(c1cn[nH]c(=O)c1Cl)C2 (stereo not shown) [Example E24, 4-chloro-5-(3-((4-fluoro-2-methylphenyl)(methoxy-d3)methyl)-5,6-dihydroimidazo[1,2-a]pyrazin-7(8H)-yl)pyridazin-3(2H)-one]",MF %,[4],55.9%
same,half-life at 1 µM,[4],0.997 h
same,MF %,[5],63.8%
same,half-life at 1 µM,[5],3.15 h
